For test [1], the target named is T1, protein kinases (human kinome) (Homo sapiens, UniProt Q14CZ7).
T1 sequence (Q14CZ7 1-662): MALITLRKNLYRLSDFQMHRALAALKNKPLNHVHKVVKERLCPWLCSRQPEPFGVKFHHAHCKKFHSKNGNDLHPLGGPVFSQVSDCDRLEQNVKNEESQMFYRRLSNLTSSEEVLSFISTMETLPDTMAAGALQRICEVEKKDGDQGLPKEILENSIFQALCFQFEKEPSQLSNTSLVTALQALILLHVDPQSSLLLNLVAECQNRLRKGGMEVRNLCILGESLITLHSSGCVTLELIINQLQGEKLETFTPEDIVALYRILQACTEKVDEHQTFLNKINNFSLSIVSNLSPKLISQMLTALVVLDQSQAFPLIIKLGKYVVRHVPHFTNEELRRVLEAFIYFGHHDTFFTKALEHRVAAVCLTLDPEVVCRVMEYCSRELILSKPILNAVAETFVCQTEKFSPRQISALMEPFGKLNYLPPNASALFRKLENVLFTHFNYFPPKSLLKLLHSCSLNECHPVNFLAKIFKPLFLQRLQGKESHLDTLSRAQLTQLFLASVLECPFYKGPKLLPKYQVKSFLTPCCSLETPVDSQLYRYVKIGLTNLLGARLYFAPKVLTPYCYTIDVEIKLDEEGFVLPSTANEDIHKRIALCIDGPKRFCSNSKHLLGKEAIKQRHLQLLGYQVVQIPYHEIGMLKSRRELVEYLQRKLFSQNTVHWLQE
The class given is cell-based. The settings on record: Accession Q14CZ7; experiment wp084; direction down.

The target in test [2] is protein kinases (human kinome) (Homo sapiens, UniProt Q15118). The class given is cell-based. Particulars: PDK1 Q15118; experiment wp084.

These results are taken from patent publication US20240269139A1, “COMPOUNDS FOR TARGETED PROTEIN DEGRADATION OF KINASES” (DANA-FARBER CANCER INSTITUTE, INC., priority 2020, published 2024).

protein kinases (human kinome) (Homo sapiens, UniProt Q15118), sequence (Q15118 29-436): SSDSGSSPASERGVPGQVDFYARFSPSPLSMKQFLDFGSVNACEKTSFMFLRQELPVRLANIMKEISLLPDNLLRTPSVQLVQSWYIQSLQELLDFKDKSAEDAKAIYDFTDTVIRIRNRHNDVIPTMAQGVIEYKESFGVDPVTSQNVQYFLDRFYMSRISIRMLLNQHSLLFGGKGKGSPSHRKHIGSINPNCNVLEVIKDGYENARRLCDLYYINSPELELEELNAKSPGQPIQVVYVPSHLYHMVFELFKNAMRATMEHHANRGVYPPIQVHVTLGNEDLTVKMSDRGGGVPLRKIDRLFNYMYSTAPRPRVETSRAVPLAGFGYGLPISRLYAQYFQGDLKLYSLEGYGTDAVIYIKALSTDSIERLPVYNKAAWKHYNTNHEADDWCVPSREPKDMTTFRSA

On to `CC(=O)c1c(C)c2cnc(Nc3ccc(N4CCN(CCOCCOCCOCCNC(=O)COc5cccc6c5C(=O)N(C5CCC(=O)NC5=O)C6=O)CC4)cn3)nc2n(C2CCCC2)c1=O` (stereo not drawn) [BSJ.03.123], for which, in test [1], the “logFC FASTKD3” value is recorded as −0.4728. Further, in test [2], the logFC was −0.5666 and the “logFC PDK1” value is on record as −0.5666.
